# Several values for one entry are separate records, joined by “and”; a condition that tells them apart may be missing. Equal entries are not always repeated.
# Key:
# [1] = log P by HPLC on reversed-phase columns (EEC directive 79/831 Annex V.A8); type: physicochemical
# Method: The log P values were measured according to EEC directive 79/831 Annex V.A8 by HPLC (High Performance Liquid Chromatography) on reversed-phase columns, using the methods below: […] Calibration was carried out using unbranched alkan-2-ones (having from 3 to 16 carbon atoms) with known log P values (the log P values were determined by the retention times using linear interpolation between two successive alkanones). The lambda maX values were determined in the maxima of the chromatographic signals using the UV spectra from 200 nm to 400 nm.
# [2] = test system: Alternaria solani; experiment: Example A: Alternaria test (tomato)/protective; type: in vivo; settings: protective, 500 ppm, evaluation 7 days after inoculation
# Method: Solvent: 49 parts by weight of N,N-dimethylformamide Emulsifier: 1 part by weight of alkylaryl polyglycol ether To produce a suitable preparation of active compound, 1 part by weight of active compound is mixed with the stated amounts of solvent and emulsifier, and the concentrate is diluted with water to the desired concentration. […] The plants then remain at 96% rel. atmospheric humidity and a temperature of 20° C.
# [3] = test system: Sphaerotheca fuliginea; experiment: Example B: Sphaerotheca test (cucumber)/protective; type: in vivo; settings: protective, 500 ppm, evaluation 7 days after inoculation
# Method: Solvent: 49 parts by weight of N,N-dimethylformamide Emulsifier: 1 part by weight of alkylaryl polyglycol ether To produce a suitable preparation of active compound, 1 part by weight of active compound is mixed with the stated amounts of solvent and emulsifier, and the concentrate is diluted with water to the desired concentration. To test for protective activity, young cucumber plants are sprayed with the preparation of active compound at the stated application rate. 1 day after the treatment, the plants are inoculated with a spore suspension of Sphaerotheca fuliginea. The plants are then placed in a greenhouse at 70% relative air humidity and a temperature of 23° C.
# [4] = test system: Uromyces appendiculatus; experiment: Example E: Uromyces test (bean)/protective; type: in vivo; settings: protective, 10 ppm, evaluation 10 days after inoculation
# Method: Solvents: 24.5 parts by weight of acetone • 24.5 parts by weight of dimethylacetamide Emulsifier: 1 part by weight of alkylaryl polyglycol ether To produce a suitable preparation of active compound, 1 part by weight of active compound is mixed with the stated amounts of solvent and emulsifier, and the concentrate is diluted with water to the desired concentration. To test for protective activity, young plants are sprayed with the preparation of active compound at the stated application rate. […] The plants are then placed in a greenhouse at about 21° C. and a relative atmospheric humidity of about 90%.
# [5] = test system: Leptosphaeria nodorum; experiment: Example H: Leptosphaeria nodorum test (wheat)/protective; type: in vivo; settings: protective, 500 ppm, evaluation 8 days after inoculation
# Method: (§1) Solvent: 49 parts by weight of N,N-dimethylacetamide Emulsifier: 1 part by weight of alkylaryl polyglycol ether To produce a suitable preparation of active compound, 1 part by weight of active compound is mixed with the stated amounts of solvent and emulsifier, and the concentrate is diluted with water to the desired concentration. To test for protective activity, young plants are sprayed with the preparation of active compound at the stated application rate. After the spray coating has dried on, the plants are sprayed with a spore suspension of Leptosphaeria nodorum.
# [6] = test system: Puccinia triticina; experiment: Example L: Puccinia triticina test (wheat)/protective; type: in vivo; settings: protective, 500 ppm, evaluation 8 days after inoculation
# Method: as §1, with “sprayed with spores with a spore” for “sprayed with a spore”, “suspension of Puccinia triticina.” for “suspension of Leptosphaeria nodorum.”
# [7] = test system: Fusarium nivale (var. majus); experiment: Example M: Fusarium nivale (var. majus) test (wheat)/protective; type: in vivo; settings: protective, 500 ppm, evaluation 5 days after inoculation
# Method: as §1, with “Fusarium nivale (var. majus).” for “Leptosphaeria nodorum.”
# [8] = test system: Fusarium graminearum; type: in vivo; settings: barley (heading), protective, 500 ppm, evaluation 5 days after inoculation
# [9] = test system: Phytophthora infestans; type: in vivo; settings: tomato, preventative, 500 ppm, evaluation 5 days after inoculation
# [10] = test system: Pyricularia oryzae; type: in vivo; settings: rice, preventative, 500 ppm, evaluation 6 days after inoculation
# [11] = test system: Puccinia recondita; experiment: Example T: preventative in vivo test with Puccinia recondita (brown rust on wheat); settings: 500 ppm, evaluation 10 days after inoculation
# Method: The active compounds tested are prepared by homogenization in a mixture of acetone/Tween/DMSO and then diluted with water to the desired active compound concentration. Wheat plants (cultivar “Scipion”), sown in a 50/50 peat/pozzolana soil substrate and cultivated at 22° C. (12 h)/20° C. (12 h), are treated at the 1-leaf stage (height 10 cm) by spraying with the active compound, prepared as above. As a control, plants are treated with the mixture of acetone/Tween/DMSO/water without the active compound. After 24 hours, the plants are inoculated by spraying the leaves with an aqueous suspension of Puccinia recondita spores.
# [12] = test system: Sphaerotheca fuliginea; experiment: Example V: preventative in vivo test with Sphaerotheca fuliginea (powdery mildew on cucumber); settings: 500 ppm, evaluation 12 days after inoculation
# Method: The active compounds tested are prepared by homogenization in a mixture of acetone/Tween/DMSO and then diluted with water to the desired active compound concentration. Cucumber plants (cultivar “Vert petit de Paris”), sown in a 50/50 peat/pozzolana soil substrate and cultivated at 24° C., are treated at the Z11 cotyledon stage by spraying with the active compound, prepared as above. As a control, plants are treated with the mixture of acetone/Tween/DMSO/water without the active compound. After 24 hours, the plants are inoculated by spraying the leaves with an aqueous suspension of Sphaerotheca fuliginea spores. The inoculated cucumber plants are incubated at about 20° C./25° C. and a relative atmospheric humidity of 60/70%.
# [13] = test system: Uromyces appendiculatus; experiment: Example W: preventative in vivo test with Uromyces appendiculatus (bean rust); settings: 500 ppm, evaluation 10 days after inoculation
# Method: The active compounds tested are prepared by homogenization in a mixture of acetone/Tween/DMSO and then diluted with water to the desired active compound concentration. Bean plants (cultivar “Saxa”), sown in a 50/50 peat/pozzolana soil substrate and cultivated at 24° C., are treated at the 2-leaf stage (height 9 cm) by spraying with the active compound, prepared as above. As a control, plants are treated with the mixture of acetone/Tween/DMSO/water without the active compound. After 24 hours, the plants are inoculated by spraying the leaves with an aqueous suspension of Uromyces appendiculatus spores.
smiles,measurement,setting,value
"OC(Cc1ccccc1Cl)(Cn1ccnc1I)C1(Cl)CC1 (centres unmarked) [Example 1, 2-(1-chlorocyclopropyl)-1-(2-chlorophenyl)-3-(2-iodo-1H-imidazol-1-yl)propan-2-ol]",chromatographic logP,"[1]; pH 2.7, logP",2.35
same,chromatographic logP,"[1]; pH 7.8, logP",3.38
same,Eff. %,[2],88%
same,Eff. %,[3],80%
same,Eff. %,[4],100% and 88%
same,Eff. %,[5],100%
same,Eff. %,[6],100%
same,Eff. %,[7],100%
same,Eff. %,[8],100%
same,Efficacy %,[9],100%
same,Efficacy %,[10],100%
same,Efficacy %,[11],100%
same,Efficacy %,[12],100%
same,Efficacy %,[13],100%

# — patent US9095136B2, “2-IODO imidazole-derivatives” (BAYER INTELLECTUAL PROPERTY GMBH, priority 2011, dated 2015)
